{"source": "patent US6380158B1", "about": "“Motilin homologs” (ZymoGenetics, Inc., priority 1997, dated 2002)", "key": {"[1]": {"test_system": "antral portion of the stomach", "assay": "Rat stomach contraction in vivo: topical application between two transducing crystals on the antrum", "design": "species or system Sprague-Dawley rats", "text": "Two male Sprague-Dawley rats, approximately 12 weeks old (Harlan, Indianapolis, Ind.) were anesthetized with urethane and their stomachs were exposed through a small abdominal incision. Two 2.4 mm transducing crystals (Sonometrics, Ontario, Canada) were placed on the antral portion of the stomach such that circular contractions could be monitored as a change in the distance between the two crystals. The crystals were attached with VETBOND TISSUE ADHESIVE (3M, St. Paul, Minn.).\nThe amplitude of the NE-induced decrease was approximately 50% of the acetylcholine-induced increase in distance. Both responses were transient.\nA negative control of 10 μl of phosphate buffer solution (PBS) applied topically between the crystals had no effect.\nA 14 amino acid zsig33 peptide (from amino acid residue 24 (Gly) to amino acid residue 37 (Gln) of SEQ ID NO: 2) was dissolved in PBS) and 10 μl was applied topically for a final concentration of 1 μg, 10 μg or 100 μg."}, "ob/ob mice": {"test_system": "ob/ob mice", "assay": "Oral glucose challenge in ob/ob mice after oral gavage of the peptide (serum glucose levels)", "type": "in vivo", "conditions": "100 μg orally, 30 minutes prior to oral glucose challenge", "protocol": "Eight female ob/ob mice, approximately 6 weeks […] old (Jackson Labs, Bar Harbor, Me.) were adapted to a 4 hour daily feeding schedule for two weeks. After two weeks on the feeding schedule, the mice were give 100 μg of a 14 amino acid amino zsig33 peptide (from amino acid residue 24 (Gly) to amino acid residue 37 (Gln) of SEQ ID NO: 2) in 100 μl sterile 0.1% BSA by oral gavage, immediately after their eating period (post-prandially). Thirty minutes later, the mice were challenged orally with a 0.5 ml volume of 25% glucose. Retroorbital bleeds were done to determine serum glucose levels. Blood was drawn prior to zsig33 dosing, prior to oral glucose challenge, and at 1, 2, 4, and 20 hours following the glucose challenge."}, "[2]": {"conditions": "10 μl of 1 μM applied topically, anesthetized rats"}}, "data": [{"compound": "NC[C@H](O)c1ccc(O)c(O)c1", "note": "[norepinephrine, reference compound]", "values": [{"measurement": "amplitude of the NE-induced decrease relative to the acetylcholine-induced increase in distance", "setting": "[1]; [2]", "result": "approximately 50%"}, {"measurement": "change in the distance between the two crystals (circular contractions of the stomach)", "setting": "[1]; [2]", "result": "reduction in the distance between the two crystals"}]}, {"compound": "zsig33 peptide: 14 amino acid zsig33 peptide, from amino acid residue 24 (Gly) to amino acid residue 37 (Gln) of SEQ ID NO: 2 (GSSFLSPEHQRVQQ)", "values": [{"measurement": "change in crystal distance (stomach contractions)", "setting": "[1]; 1 μg in 10 μl PBS applied topically", "result": "sustained, rhythmic increase and decrease in crystal distance"}, {"measurement": "change in crystal distance (rate and amplitude of contractions)", "setting": "[1]; 10 μg in 10 μl PBS applied topically", "result": "enhanced responses in both rate and amplitude"}, {"measurement": "change in crystal distance (rate and amplitude of contractions)", "setting": "[1]; 100 μg in 10 μl PBS applied topically", "result": "enhanced responses in both rate and amplitude"}, {"measurement": "post-prandial glucose absorption (serum glucose levels)", "setting": "ob/ob mice", "result": "enhanced post-prandial glucose absorption"}]}]}
